Counter-ions that a name gives are not always drawn.
How the values were obtained:
[1] = test system: IL-6 secretion in human conjunctival epithelial cells; experiment: Inhibition of histamine-stimulated IL-6 secretion from cultured human conjunctival epithelial cells (ELISA); type: cell-based; settings: for potency in intact cells / inhibition of secretion compared with receptor binding: IL-6 and IL-8 secretion
Description: Methods detailing the preparation of primary epithelial cell cultures and cytokine release studies using these cells have been described. […] Briefly, cultures of human conjunctival epithelial cells were initiated from donor tissues obtained within eight hours post mortem by various eye banks. The tissues were enzymatically digested overnight. Epithelial cells were gently scraped from the tissue surface, dissociated into a single cell suspension, and cultured in keratinocyte growth medium (Clonetics®, San Diego, Calif.). Cells were used only through passage 6. Cultures were maintained in a preconfluent state to prevent differentiation.
Several compounds with histamine H1 antagonist activity were evaluated for their ability to inhibit secretion of cytokines (IL-6 and IL-8) from cultured human conjunctival epithelial cells in response to histamine stimulation. Cells were plated at 2×10^4 cells/well and cultured overnight at 5% CO2 /37° C. The following day, fresh medium containing test compound was added directly to wells and the cells were incubated for 30 minutes prior to 24-hour stimulation with histamine (30 μM). Three separate culture wells were used for each treatment group. At harvest, supernatants were collected, centrifuged at 200× g, and stored at -20° C. Samples were analyzed for IL-6 and IL-8 by ELISA (R&D Systems, Minneapolis, Minn.) as directed by the manufacturer. The sensitivities of each ELISA are as follows: IL-6 0.7 pg/ml and IL-8 3.0 pg/ml.
Data derived from the cytokine assays were calculated as mean and standard error (SEM) values which represent the variability among identically treated culture wells. The dose-dependent effect of pharmacological agents and IC50 's were determined by linear regression. Data are expressed as mean ±S.E.M. from 3-5 independent experiments.

[2] = cited from earlier work; for activity taught in U.S. Pat. Nos. 4,871,865 and 4,923,892: Burroughs Wellcome Patents
[3] = test system: IL-8 secretion in human conjunctival epithelial cells; experiment: Inhibition of histamine-stimulated IL-8 secretion from cultured human conjunctival epithelial cells (ELISA); type: cell-based; settings: Epithelial cell, 24 h, read-out: increase of IL-8 secretion above basal levels
Description: Methods detailing the preparation of primary epithelial cell cultures and cytokine release studies using these cells have been described. See Gamache, et al., "Secretion of proinflammatory cytokines by human conjunctival epithelial cells," Ocul Immunol Inflamm., 5:117-128 (1997). Briefly, cultures of human conjunctival epithelial cells were initiated from donor tissues obtained within eight hours post mortem by various eye banks. The tissues were enzymatically digested overnight. Epithelial cells were gently scraped from the tissue surface, dissociated into a single cell suspension, and cultured in keratinocyte growth medium (Clonetics®, San Diego, Calif.). Cells were used only through passage 6. Cultures were maintained in a preconfluent state to prevent differentiation. Cells were identified as epithelial by positive keratin staining.
Several compounds with histamine H1 antagonist activity were evaluated for their ability to inhibit secretion of cytokines (IL-6 and IL-8) from cultured human conjunctival epithelial cells in response to histamine stimulation. Cells were plated at 2×10^4 cells/well and cultured overnight at 5% CO2 /37° C. […] Samples were analyzed for IL-6 and IL-8 by ELISA (R&D Systems, Minneapolis, Minn.) as directed by the manufacturer. […]

[4] = IL-6 and IL-8 secretion versus H1 binding

SMILES: CN(C)CCC(c1ccccc1)c1ccccn1 (stereo not shown) [Pheniramine, N,N-Dimethyl-γ-phenyl-2-pyridine-propanamine]
- less potent inhibitor of IL-6 and IL-8 secretion than predicted from histamine H1-receptor binding affinity [1, 4]: 20-140 fold

SMILES: CN(C)CC/C=C1/c2ccccc2COc2ccc(CC(=O)O)cc21 [Olopatadine, Z-11-(3-Dimethylaminopropylidene)-6,11-dihydrodibenz[b,e]oxepin-2-acetic acid]
- activity taught in U.S. Pat. No. 5,116,863 ([2]; Kyowa patent, Wistar male rats): anti-allergic and anti-inflammatory activity
- more potent inhibitor of cytokine secretion than predicted from binding data [1, 4]: approximately 10 fold

SMILES: CN(C)CCC=C1c2ccccc2COc2ccc(/C=C/C(=O)O)cc21 [11-(3-dimethylamino-propylidene)-6,11-dihydrodibenz[b,e]oxepine-2(E)-acrylic acid]
- activity taught in U.S. Pat. Nos. 4,871,865 and 4,923,892 [2]: antihistaminic and antiasthmatic activity

SMILES: c1ccc(CN(CC2=NCCN2)c2ccccc2)cc1 [Antazoline, 4,5-Dihydro-N-phenyl-N-(phenylmethyl)-1H-imidazole-2-methanamine]
- less potent inhibitor of IL-6 and IL-8 secretion than predicted from histamine H1-receptor binding affinity [1, 4]: 20-140 fold

SMILES: C[C@@H]1CN([C@H]2CC[C@](C#N)(c3ccc(F)cc3)CC2)CC[C@]1(C(=O)O)c1ccccc1 [Levocabastine, (-)-trans-1-[cis-4-Cyano-4-(p-fluorophenyl)cyclohexyl]-3-methyl-4-phenylisonipecotic acid monohydrochloride]
- potency in intact cells / inhibition of secretion compared with receptor binding [1]: at a level consistent with its H1 -receptor binding affinity

SMILES: CCOCCn1c(N2CCCN(C)CC2)nc2ccccc21 [Emedastine, 1H-Benzimidazole,1-(2-ethoxyethyl)-2-(hexahydro-4-methyl-1H-1,4-diazepin-1-yl),(E)-2-butenedioate (1:2)]
- potency in intact cells / inhibition of secretion compared with receptor binding [1]: consistent with its activity determined in receptor binding assays

SMILES: NCCc1c[nH]cn1 [histamine]
- fold induction at 30 µM ([1]; Homo sapiens, Epithelial cell, 24 h, read-out: increase of IL-6 secretion above basal levels): 1.59 ± 0.19
- fold induction at 30 µM [3]: 1.8 ± 0.28

SMILES: CN(C)CCC=C1c2ccccc2COc2ccc(C(=O)O)cc21 [11-(3-dimethylaminopropylidene)-6,11-dihydrodibenz[b,e]oxepine-2-carboxylic acid]
- activity taught in U.S. Pat. Nos. 4,871,865 and 4,923,892 [2]: antihistaminic and antiasthmatic activity
